Assay results taken from patent publication US20250221991A1, “COMBINATION THERAPY FOR THE TREATMENT OF CANCER METASTASES” (University of Cincinnati, priority 2024, published 2025).
“And” between values parts separate entries of the source, which are not always exact repeats. Equal values may be shown once.

Assays:
[1] = test system: MDA-MB-231 cells; assay: Soft agar colony formation, MDA-MB-231; assay type: cell-based
Procedure: (§1) The capability of cells to grow under anchorage-independent conditions is a hallmark of transformation and correlates with tumor progression in vivo. The assay was performed in a 60-mm dish with a bottom layer of 2 mL 0.5% agar (Noble Agar, Sigma) in the culture medium that is designated to the cells. The bottom agar was allowed to be solidified in the biosafety cabinet. Cells were suspended in 0.2% agar for PANC-1 cells, MIA PaCa-2 cells, and B16-F10 cells, but in 0.15% agar for MDA-MB-231 cells and 4T1 cells and then plated (1×10^5 cells/2 mL/dish) on top of the bottom layer. 400 μL culture medium with or without the indicated doses of drug treatment was added to cover the top agar layer every other day over 2 weeks for PANC-1, MIA PaCa-2 cells and over 3 weeks for MDA-MB-231 cells, respectively. The colonies in five microscopic fields (top, bottom, left, right and center) of each dish were photographed. […] Each treatment was repeated thrice.

[2] = test system: PANC-1 cells; assay: Soft agar colony formation, PANC-1; assay type: cell-based, human
Procedure: as §1

[3] = test system: MIA PaCa-2 cells; assay: Soft agar colony formation, MIA PaCa-2; assay type: cell-based, human
Procedure: as §1

[4] = test system: MDA-MB-231 cells; assay: Deadherent survival (WST-1, poly-HEMA vs plastic), MDA-MB-231; assay type: cell-based; settings: for concentration range of significant growth inhibition on poly-HEMA: deadherent cells
Procedure: (§2) Cells were seeded at a density of 10^4 cells/well in 96-well plates, either uncoated or in poly(2-hydroxyethyl methacrylate) (poly-HEMA) coated wells (3 mg of poly-HEMA in 50 μL 95% ethanol, let dry overnight, then washed twice with PBS, followed by one wash with medium before initiation of the experiment). Drugs were added in triplicates at the indicated concentrations for an incubation time of 48 h. At the 48-h time point, the indicator WST-1 was added to each well at 10% v/v final concentration. At the 60-, 80-, and 120-minute time points, the absorbance was measured at 450 nm using a MRX-TC Revelation plate reader.

[5] = test system: PANC-1 cells; assay: Deadherent survival (WST-1, poly-HEMA vs plastic), PANC-1; assay type: cell-based, human
Procedure: as §2

[6] = test system: MIA PaCa-2 cells; assay: Deadherent survival (WST-1, poly-HEMA vs plastic), MIA PaCa-2; assay type: cell-based, human
Procedure: as §2

[7] = same concentration range that completely suppressed soft agar colony formation

SMILES: [NH4+].[NH4+].[SH-].[SH-].[S]=[Mo]=[S] [ammonium tetrathiomolybdate]
- inhibition of soft agar colony size ([1]; 0.5 μg/mL): 43%
- inhibition of soft agar colony size ([1]; 1 μg/mL): 75%
- inhibition of soft agar colony size ([1]; 2 μg/mL): 93%
- inhibition of soft agar colony size ([1]; 4 μg/mL): 94%

SMILES: C[S+](C)[O-] [DMSO, dimethyl sulfoxide]
- soft agar colony frequency ([2]; 0.125%-0.25% (v/v)): without impacting
- soft agar colony frequency ([3]; 0.125%-0.25% (v/v)): without impacting
- effect on growth when plated on plastic or on poly-HEMA [4, 7]: no effect
- effect on growth when plated on plastic or on poly-HEMA [5, 7]: no effect
- effect on growth when plated on plastic or on poly-HEMA [6, 7]: no effect

SMILES: CCCCNc1cc(C(=O)O)cc(S(N)(=O)=O)c1Oc1ccccc1 [bumetanide]
- concentration suppressing both adherent and deadherent cells ([4]; 48 h, WST-1): above 50 μg/mL
- concentration range of significant growth inhibition on poly-HEMA ([4]; 48 h, WST-1): 15 to 35 µg/mL
- effect on the same cells in the adherent (plated) state ([4]; in the concentration range that significantly inhibits cells on poly-HEMA): without affecting
- concentration range suppressing proliferation on poly-HEMA ([6]; deadherent cells): 1 to 5 µg/mL

SMILES: Cc1ccc(Nc2nccc(N(C)c3ccc4c(C)n(C)nc4c3)n2)cc1S(N)(=O)=O [pazopanib]
- concentration at which inhibition of soft agar colony formation reaches significance [1]: 0.5 μM and 0.24 μg/mL
- concentration at which inhibition of soft agar colony formation reaches significance [2]: 0.25 μM and 0.12 μg/mL
- concentration inhibiting soft agar colony formation [3]: 2.1 μM and 1 μg/mL
- concentration range of significant growth inhibition on poly-HEMA ([4]; 48 h, WST-1): 0.4 to 2.0 µg/mL
- concentration inhibiting growth under both conditions (adherent and deadherent) ([5]; 48 h): Above 2 μg/mL
- concentration range increasing adherent cell growth ([5]; adherent cells, 48 h): 0.4 to 2 µg/mL
- starting concentration significantly decreasing growth of deadherent cells ([5]; poly-HEMA, 48 h): ≥ 0.2 µg/mL
